# Reference: paper doi:10.1101/2024.09.05.611349v1 (biorxiv, 2024)
# Where two headings read alike, the source gives them in different places.
# Assays:
# Assay in all cases: microbe, parasite or virus in culture
# Parameters in all cases: species or system gram-positive clinical isolates
# [1] = system: Enterococcus faecalis EFA 15-55; details: Enterococcus faecalis
# [2] = system: Staphylococcus aureus MRSA 15-3; details: Staphylococcus aureus, MRSA
# [3] = system: Staphylococcus aureus MRSA 17-7; details: Staphylococcus aureus, MRSA
# [4] = system: Enterococcus faecium EFM 15-7; details: Enterococcus faecium
# [5] = system: Staphylococcus epidermidis MRSE 15-1; details: Staphylococcus epidermidis, MRSE
# [6] = system: Enterococcus faecium EFM 15-52; details: Enterococcus faecium
# [7] = system: Enterococcus faecium EFM 15-9; details: Enterococcus faecium
# [8] = system: Staphylococcus epidermidis MRSE 15-78; details: Staphylococcus epidermidis, MRSE
# [9] = system: Staphylococcus aureus MRSA 15-1; details: Staphylococcus aureus, MRSA
# [10] = system: Enterococcus faecium EFM 15-1; details: Enterococcus faecium
# [11] = system: Staphylococcus aureus MSSA 15-2; details: Staphylococcus aureus, MSSA
# [12] = system: Staphylococcus aureus MRSA 17-9; details: Staphylococcus aureus, MRSA
# [13] = system: Staphylococcus aureus MSSA 15-7; details: Staphylococcus aureus, MSSA
# [14] = system: Staphylococcus epidermidis MRSE 15-76; details: Staphylococcus epidermidis, MRSE
# [15] = system: Staphylococcus aureus MSSA 15-1; details: Staphylococcus aureus, MSSA
# [16] = system: Staphylococcus aureus MSSA 15-8; details: Staphylococcus aureus, MSSA
# [17] = system: Staphylococcus aureus MRSA 17-5; details: Staphylococcus aureus, MRSA
# [18] = system: Enterococcus faecalis EFA 15-68; details: Enterococcus faecalis
# [19] = system: Staphylococcus aureus MRSA 16-2; details: Staphylococcus aureus, MRSA
# [20] = system: Staphylococcus aureus MSSA 16-2; details: Staphylococcus aureus, MSSA
# [21] = system: Staphylococcus epidermidis MRSE 15-80; details: Staphylococcus epidermidis, MRSE
# [22] = system: Staphylococcus aureus MSSA 16-1; details: Staphylococcus aureus, MSSA
# [23] = system: Staphylococcus aureus MRSA 17-1; details: Staphylococcus aureus, MRSA
# [24] = system: Staphylococcus aureus MRSA 16-1; details: Staphylococcus aureus, MRSA
# [25] = system: Staphylococcus aureus MRSA 15-2; details: Staphylococcus aureus, MRSA
# [26] = system: Staphylococcus aureus MRSA 17-8; details: Staphylococcus aureus, MRSA
# [27] = system: Enterococcus faecalis EFA 15-57; details: Enterococcus faecalis
# [28] = read-out: MIC(μg/ml) / vancomycin
structure (smiles),measurement,setting,value
"CCCCCOc1ccc(C(=O)NNC(=S)NC(C)=O)cc1 [1b, N-(2-(4-(n-pentoxy)benzoyl)hydrazine-1-carbonothioyl)acetamide]",MIC,"[1]; EFA1555, read-out: MIC(μg/ml) / 1b",8 µg/mL
same,MIC,[2]; read-out: MIC(μg/ml) / 1b,4 µg/mL
same,MIC,[3]; read-out: MIC(μg/ml) / 1b,2 µg/mL
same,MIC,"[4]; EFM157, read-out: MIC(μg/ml) / 1b",2 µg/mL
same,MIC,[5]; read-out: MIC(μg/ml) / 1b,4 µg/mL
same,MIC,"[6]; EFM1552, read-out: MIC(μg/ml) / 1b",8 µg/mL
same,MIC,"[7]; EFM159, read-out: MIC(μg/ml) / 1b",4 µg/mL
same,MIC,[8]; read-out: MIC(μg/ml) / 1b,2 µg/mL
same,MIC,[9]; read-out: MIC(μg/ml) / 1b,4 µg/mL
same,MIC,"[10]; EFM151, read-out: MIC(μg/ml) / 1b",8 µg/mL
same,MIC,[11]; read-out: MIC(μg/ml) / 1b,2 µg/mL
same,MIC,[12]; read-out: MIC(μg/ml) / 1b,2 µg/mL
same,MIC,[13]; read-out: MIC(μg/ml) / 1b,2 µg/mL
same,MIC,[14]; read-out: MIC(μg/ml) / 1b,2 µg/mL
same,MIC,[15]; read-out: MIC(μg/ml) / 1b,1 µg/mL
same,MIC,[16]; read-out: MIC(μg/ml) / 1b,2 µg/mL
same,MIC,[17]; read-out: MIC(μg/ml) / 1b,2 µg/mL
same,MIC,"[18]; EFA1568, read-out: MIC(μg/ml) / 1b",4 µg/mL
same,MIC,[19]; read-out: MIC(μg/ml) / 1b,2 µg/mL
same,MIC,[20]; read-out: MIC(μg/ml) / 1b,1 µg/mL
same,MIC,[21]; read-out: MIC(μg/ml) / 1b,1 µg/mL
same,MIC,[22]; read-out: MIC(μg/ml) / 1b,1 µg/mL
same,MIC,[23]; read-out: MIC(μg/ml) / 1b,2 µg/mL
same,MIC,[24]; read-out: MIC(μg/ml) / 1b,2 µg/mL
same,MIC,[25]; read-out: MIC(μg/ml) / 1b,4 µg/mL
same,MIC,[26]; read-out: MIC(μg/ml) / 1b,2 µg/mL
same,MIC,"[27]; EFA1557, read-out: MIC(μg/ml) / 1b",4 µg/mL
CN[C@H](CC(C)C)C(=O)N[C@H]1C(=O)N[C@@H](CC(N)=O)C(=O)N[C@H]2C(=O)N[C@H]3C(=O)N[C@H](C(=O)N[C@H](C(=O)O)c4cc(O)cc(O)c4-c4cc3ccc4O)[C@H](O)c3ccc(c(Cl)c3)Oc3cc2cc(c3O[C@@H]2O[C@H](CO)[C@@H](O)[C@H](O)[C@H]2O[C@H]2C[C@](C)(N)[C@H](O)[C@H](C)O2)Oc2ccc(cc2Cl)[C@H]1O [vancomycin],MIC,"[1]; EFA1555, read-out: MIC(μg/ml) / vancomycin",0.5 µg/mL
same,MIC,[2]; [28],1 µg/mL
same,MIC,[3]; [28],0.25 µg/mL
same,MIC,"[4]; EFM157, read-out: MIC(μg/ml) / vancomycin",0.5 µg/mL
same,MIC,[5]; [28],2 µg/mL
same,MIC,"[6]; EFM1552, read-out: MIC(μg/ml) / vancomycin",2 µg/mL
same,MIC,"[7]; EFM159, read-out: MIC(μg/ml) / vancomycin",0.5 µg/mL
same,MIC,[8]; [28],1 µg/mL
same,MIC,[9]; [28],2 µg/mL
same,MIC,"[10]; EFM151, read-out: MIC(μg/ml) / vancomycin",1 µg/mL
same,MIC,[11]; [28],1 µg/mL
same,MIC,[12]; [28],0.5 µg/mL
same,MIC,[13]; [28],1 µg/mL
same,MIC,[14]; [28],2 µg/mL
same,MIC,[15]; [28],1 µg/mL
same,MIC,[16]; [28],0.5 µg/mL
same,MIC,[17]; [28],0.5 µg/mL
same,MIC,"[18]; EFA1568, read-out: MIC(μg/ml) / vancomycin",0.5 µg/mL
same,MIC,[19]; [28],1 µg/mL
same,MIC,[20]; [28],0.5 µg/mL
same,MIC,[21]; [28],2 µg/mL
same,MIC,[22]; [28],0.5 µg/mL
same,MIC,[23]; [28],0.5 µg/mL
same,MIC,[24]; [28],1 µg/mL
same,MIC,[25]; [28],2 µg/mL
same,MIC,[26]; [28],0.5 µg/mL
same,MIC,"[27]; EFA1557, read-out: MIC(μg/ml) / vancomycin",2 µg/mL
